# Laboratory results: US20230218614A1, “COMPOUND FOR THE TREATMENT OF C[…]” (METRIOPHARM AG, priority 2020, published 2023)
# Tests used:
# 3-nitrotyrosine = details: ex vivo lung exposed to cigarette smoke; cited from earlier work
# Vero B4 cells = details: non-infected Vero B4 cells, antivirally effective concentrations, observation period of 3 days
# From the text: Herein viable cells with an intact mitochondrial succinate-tetrazolium dehydrogenase system effect an enzymatic conversion of the feebly red tetrazolium salt WST-1 (4-[3-(4-iodophenyl)-2-(4-nitrophenyl)-2H-5-tetrazolio]-1,3 benzene disulfonate) into dark red formazan. This color change can be measured photometrically in a spectrophotometer. Thus, the WST assay is a very sensitive method for measuring the toxicity of substances on the cell metabolism. The value for untreated cells was set to 100%.
# The value for untreated cells was set to 100%.
smiles,measurement,setting,value
"Nc1cccc2c(=O)[nH][nH]c(=O)c12.[Na] [5-amino-2,3-dihydro-1,4-phthalazinedione sodium salt]",3-nitrotyrosine,3-nitrotyrosine,nearly complete reduction
same,SARS-CoV-2 nucleocapsid protein (Western Blot bands),SARS-CoV-2,clear reduction
same,generation of SARS-CoV-2 proteins (densitometric evaluation of nucleocapsid),SARS-CoV-2,inhibited dose-dependently
same,"toxic effect (cell viability, WST assay)",Vero B4 cells,does not display any significant toxic effect
